Tests used:
[1] = Concentration required to inhibit 50% of human carcinoma CH1 cell lines; type: functional, cell-based
A2780 = test: Concentration required to inhibit 50% of human carcinoma A2780 cell lines; type: functional, cell-based
SK-OV-3 = test: Concentration required to inhibit 50% of human carcinoma SKOV3 cell lines; type: functional, cell-based
[2] = biological target: Telomerase reverse transcriptase (Homo sapiens, UniProt O14746); test: Concentration required to inhibit 50% of telomerase activity
Sequence of Telomerase reverse transcriptase (O14746 whole entry): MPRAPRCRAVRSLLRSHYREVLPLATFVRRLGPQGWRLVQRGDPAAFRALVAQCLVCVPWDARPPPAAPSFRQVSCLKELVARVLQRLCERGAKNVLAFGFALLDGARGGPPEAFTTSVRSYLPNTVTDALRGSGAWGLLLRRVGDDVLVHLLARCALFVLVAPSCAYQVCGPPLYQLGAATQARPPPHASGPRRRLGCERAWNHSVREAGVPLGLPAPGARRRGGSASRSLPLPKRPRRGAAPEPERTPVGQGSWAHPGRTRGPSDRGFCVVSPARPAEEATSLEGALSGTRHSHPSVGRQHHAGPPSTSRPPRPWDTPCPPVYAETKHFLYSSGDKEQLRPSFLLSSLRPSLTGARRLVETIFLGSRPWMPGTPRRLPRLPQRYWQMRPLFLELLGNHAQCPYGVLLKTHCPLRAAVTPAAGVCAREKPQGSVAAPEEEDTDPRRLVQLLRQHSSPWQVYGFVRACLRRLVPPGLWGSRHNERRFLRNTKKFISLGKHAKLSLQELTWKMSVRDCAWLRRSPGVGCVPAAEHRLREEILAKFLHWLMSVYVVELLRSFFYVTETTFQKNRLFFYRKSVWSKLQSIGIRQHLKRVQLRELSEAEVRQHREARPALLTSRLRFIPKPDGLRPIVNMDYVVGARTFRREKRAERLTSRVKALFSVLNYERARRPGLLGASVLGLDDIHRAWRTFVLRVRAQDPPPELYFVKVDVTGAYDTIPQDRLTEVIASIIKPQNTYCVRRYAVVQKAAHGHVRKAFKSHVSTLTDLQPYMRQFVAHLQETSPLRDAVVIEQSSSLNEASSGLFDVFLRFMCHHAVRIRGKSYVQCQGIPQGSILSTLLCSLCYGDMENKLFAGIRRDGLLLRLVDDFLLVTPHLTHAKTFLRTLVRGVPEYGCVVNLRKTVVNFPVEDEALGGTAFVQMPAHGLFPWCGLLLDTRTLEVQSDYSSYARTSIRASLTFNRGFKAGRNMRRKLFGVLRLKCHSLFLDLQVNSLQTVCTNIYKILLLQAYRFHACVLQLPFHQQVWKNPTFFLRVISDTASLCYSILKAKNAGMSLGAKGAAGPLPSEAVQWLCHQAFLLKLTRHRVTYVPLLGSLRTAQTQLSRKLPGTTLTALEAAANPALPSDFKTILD

Row | IC50 [1] | IC50 (A2780) | IC50 (SK-OV-3) | EC50 [2] | SMILES
1 | > 25 µM | > 25 µM | > 25 µM | 1.9 µM | CN1CCN(CCC(=O)Nc2ccc3nc4ccc(NC(=O)CCN5CCN(C)CC5)cc4c(O)c3c2)CC1
2 | 25 µM | > 25 µM | 25 µM | 0.2 µM | CC1CCN(CCC(=O)Nc2ccc3c(O)c4cc(NC(=O)CCN5CCC(C)CC5)ccc4nc3c2)CC1
3 | > 25 µM | > 25 µM | > 25 µM | 4.9 µM | O=C(CCN1CCOCC1)Nc1ccc2c(O)c3ccc(NC(=O)CCN4CCOCC4)cc3nc2c1
4 | > 25 µM | > 25 µM | > 25 µM | 2.3 µM | CC1CCCCN1CCC(=O)Nc1ccc2nc3ccc(NC(=O)CCN4CCCCC4C)cc3c(O)c2c1 (centres undefined)
5 | 25 µM | 11.2 µM | 25 µM | 0.2 µM | O=C(CCN1CCCCC1CO)Nc1ccc2c(O)c3cc(NC(=O)CCN4CCCCC4CO)ccc3nc2c1 (centres undefined)
6 | > 25 µM | > 25 µM | > 25 µM | 1.7 µM | O=C(CCN1CCC(O)CC1)Nc1ccc2c(O)c3ccc(NC(=O)CCN4CCC(O)CC4)cc3nc2c1
7 | > 25 µM | > 25 µM | > 25 µM | 2.3 µM | O=C(CCN1CCC(O)CC1)Nc1ccc2nc3ccc(NC(=O)CCN4CCC(O)CC4)cc3c(O)c2c1
8 | 3 µM | 3 µM | 5.6 µM | 1.7 µM | CC1CCN(CCC(=O)Nc2ccc3c(O)c4ccc(NC(=O)CCN5CCC(C)CC5)cc4nc3c2)CC1
9 | > 25 µM | > 25 µM | > 25 µM | 8.1 µM | O=C(CCN1CCCC1)Nc1ccc2c(O)c3ccc(NC(=O)CCN4CCCC4)cc3nc2c1
10 | 25 µM | 3.5 µM | 25 µM | 0.2 µM | O=C(CCN1CCC(O)CC1)Nc1ccc2c(O)c3cc(NC(=O)CCN4CCC(O)CC4)ccc3nc2c1
11 | 25 µM | 5.6 µM | 25 µM | 0.4 µM | O=C(CCN1CCCCC1)Nc1ccc2c(O)c3cc(NC(=O)CCN4CCCCC4)ccc3nc2c1
12 | 13 µM | 19 µM | 21 µM | 5.9 µM | O=C(CCN1CCCCC1)Nc1ccc2c(O)c3ccc(NC(=O)CCN4CCCCC4)cc3nc2c1
13 | 11 µM | 11.8 µM | 10.5 µM | 1.9 µM | CCN1CCN(CCC(=O)Nc2ccc3c(O)c4ccc(NC(=O)CCN5CCN(CC)CC5)cc4nc3c2)CC1
14 | > 25 µM | > 25 µM | > 25 µM | 1.9 µM | O=C(CCN1CCCCC1)Nc1ccc2nc3ccc(NC(=O)CCN4CCCCC4)cc3c(O)c2c1
15 | > 25 µM | > 25 µM | > 25 µM | 5.8 µM | O=C(CCN1CCCC1)Nc1ccc2nc3ccc(NC(=O)CCN4CCCC4)cc3c(O)c2c1

Continued, compound first:

Row | SMILES | IC50 [1] | IC50 (A2780) | IC50 (SK-OV-3) | EC50 [2]
16 | CC1CCCCN1CCC(=O)Nc1ccc2c(O)c3ccc(NC(=O)CCN4CCCCC4C)cc3nc2c1 (centres undefined) | 11 µM | 13 µM | 10.5 µM | 2.3 µM
17 | CCN(CC)CCC(=O)Nc1ccc2c(O)c3cc(NC(=O)CCN(CC)CC)ccc3nc2c1 | 25 µM | 16 µM | 25 µM | 0.7 µM
18 | CCN(CC)CCC(=O)Nc1ccc2c(O)c3ccc(NC(=O)CCN(CC)CC)cc3nc2c1 | > 25 µM | > 25 µM | > 25 µM | 5.7 µM
19 | CCC1CCCCN1CCC(=O)Nc1ccc2c(O)c3ccc(NC(=O)CCN4CCCCC4CC)cc3nc2c1 (centres undefined) | 11.8 µM | 13 µM | 12 µM | 2.3 µM
20 | c1cc2cc3ccc(N4CCCC4)cc3nc2cc1N1CCCC1 | 8.2 µM | 27 µM | 2.6 µM | 5.2 µM
21 | CN(C)CCC(=O)Nc1ccc2nc3ccc(NC(=O)CCN(C)C)cc3c(O)c2c1 | > 25 µM | > 25 µM | > 25 µM | 0.6 µM
22 | CC[n+]1c(-c2ccccc2)c2cc(N)ccc2c2ccc(N)cc21 [HOMIDIUM BROMIDE] | 0.4 µM | 0.1 µM | 4.5 µM | 
23 | CCN(CC)c1ccc2cc3ccc(N(CC)CC)cc3nc2c1 | 2.5 µM | 0.6 µM | 2.3 µM | 5.8 µM
24 | c1cc2cc3ccc(N4CCCCC4)cc3nc2cc1N1CCCCC1 | 2.3 µM | 1.7 µM | 0.5 µM | 2.8 µM
25 | CN(C)CCC(=O)Nc1ccc2c(O)c3ccc(NC(=O)CCN(C)C)cc3nc2c1 | > 25 µM | > 25 µM | > 25 µM | 4.3 µM

Source: ChEMBL document CHEMBL1137062, “Evaluation of by disubstituted acridone derivatives as telomerase inhibitors: the importance of G-quadruplex binding” (Bioorg Med Chem Lett, 2004)
